Data on 70 compounds can be found in PubChem BioAssay AID179 (DTP/NCI, 2004).

A word on the EC50: it is the concentration giving half of the maximal effect. Usually IC50 stands for the concentration at which inhibition is half-maximal.

Calls of active or inactive are those of the source.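 The calls were made as follows: active = compounds giving half or more protection of infected cells from virus-caused growth loss, again on retest; inactive = the rest.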 Where a SMILES comes first, the peptide text is derived from it. [ ]: non-standard residue; d: D form. pGlu = O=C1CC[CH](C(=O)O)N1

The experiment concerns CEM cells HIV-1 protection, formazan growth assay. Description: NCI AIDS Antiviral Assay. The note with it: for IC50: measured here: growth of uninfected CEM cells. Summed up: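 Five concentrations of each compound were applied to infected and uninfected human CEM cells. Protection from HIV-1 was judged from growth measured with a soluble formazan assay.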

Regarding `CSc1nc2c(=O)oc(-c3ccc([N+](=O)[O-])cc3)nc2s1`, the EC50 is greater than 151 µM and the IC50 was 5.37 µM.
For the compound `NNC(=S)N/N=C/C(Cl)=C(\Cl)C(=O)O`, the EC50 is greater than 28.2 µM and the half-maximal inhibitory concentration (IC50) is greater than 28.2 µM.
On to `CCCCCCCCCCCCCC(=O)OCC1OC(n2cc(C)c(=O)[nH]c2=O)CC1F` (stereo unspecified), for which the half-maximal effective concentration (EC50) was 0.0437 µM and the 50% inhibitory concentration (IC50) was found to be 120 µM.
On the same counts, the results for `CCCCCCCCCCCCCCCC(=O)Nc1ccn(C2CCC(COP(=O)(O)OCC(COP(=O)(O)OCC3OC(n4cc(C)c(=O)[nH]c4=O)CC3N=[N+]=[N-])OC(=O)CCCCCCCCCCCCCCC)O2)c(=O)n1` (stereo unspecified) are 0.0182 µM and 50.1 µM.
With `CCCCCCNC(=O)C1=C(C)NC(C)=C(C(=O)NCCCCCC)C1`, the result was inactive and the IC50 is 89.1 µM.
With `Cc1c[nH]c(C(=O)O)c1-c1ccc2c(-c3ccccc3)nc3ccccc3n12`, the EC50 was greater than 200 µM and the IC50 is 33.1 µM.
On the same counts, the results for `CN(C)C(=O)OC(Cn1cncn1)c1ccc(Cl)cc1Cl` (stereo unspecified) are greater than 537 µM and 275 µM.
The like results for `O=C1CC2CCC(C1)N2CC1COc2ccccc2O1` (stereo unspecified) were, in that order, greater than 200 µM and greater than 200 µM.
The like results for `CCCC1OP(=O)(N2CC(C)N(P3(=O)OCC(CC)C(CCC)O3)CC2C)OCC1CC` (stereo unspecified) were, in that order, greater than 200 µM and greater than 200 µM.
On to `CCOC(=O)/C(C#N)=C/c1[nH]c(C)c(C)c1C`, for which the outcome was inactive.
Turning to `N#CCC(=O)N1CCCOCCC1`, the EC50 is greater than 1380 µM and the IC50 was greater than 1380 µM.
Turning to `COC(=O)c1cc(C)ccc1CC(Cc1ccccc1C)C(=O)OC` (stereo unspecified), the EC50 is greater than 200 µM and the IC50 was determined as 37.2 µM.
On the same counts, the results for `O=c1[nH]cc(SSc2c[nH]c(=O)[nH]c2=O)c(=O)[nH]1` are 138 µM and greater than 200 µM.
Take `O=C(CSSCC(=O)Nc1ccc(Br)cc1)Nc1ccc(Br)cc1`: the result was inactive.
As for `O=C1C(=O)c2ccccc2C(O)=C1Sc1ccc(Cl)cc1`, the EC50 is greater than 200 µM and the 50% inhibitory concentration (IC50) was 17.4 µM.
On the same counts, the results for `NCCCCNCCCN1CCOC1=O` are greater than 200 µM and greater than 200 µM.
In the case of `C=[N+](CNC(=O)CNC(=O)C(Cc1ccccc1)NC(=O)OC(C)(C)C)C(=O)CNC(=O)C(Cc1ccccc1)NC(=O)OC(C)(C)C` (stereo unspecified), the EC50 is greater than 100 µM and the IC50 is greater than 100 µM.
In the case of `O=c1c2ccccc2nc(-c2ccccc2)n1NC(=S)Nc1ccc(Cl)cc1[N+](=O)[O-]`, the EC50 was greater than 15.8 µM and the IC50 is greater than 15.8 µM.
As for `CC1=CC(=O)N(n2c(C)n[nH]c2=O)C1=O`, the EC50 is greater than 200 µM and the half-inhibitory concentration (IC50) is greater than 200 µM.
`CC(NC(=O)C1CCC(=O)N1)C(=O)N1CCCC1C(N)=O` (stereo not drawn) ([pGlu]-Ala-Pro-NH2; configuration not given here): the EC50 is greater than 200 µM and the IC50 is greater than 200 µM.
As to `CN1C(=O)/C(=N\n2c(-c3ccccc3)nc3ccccc3c2=O)c2ccccc21`, the EC50 was greater than 200 µM and the half-inhibitory concentration (IC50) was greater than 200 µM.
As to `O=C(CCCN1CCC(C(O)c2ccc(F)cc2)CC1)c1ccc(F)cc1` (stereo unspecified), the EC50 was greater than 95.5 µM and the IC50 amounted to 79.4 µM.
On the same counts, the results for `CN1CCC2(CC1)SC[C@H]1C(=O)N(c3ccc(Cl)cc3)C(=O)N12` are greater than 200 µM and 120 µM.
On to `C=C1[C@H]2C(=O)[C@H]3[C@@H]4N(C)C5CC3([C@@H]1OC(C)=O)[C@@H](C2OC(C)=O)C41[C@H](OC(C)=O)C(OC(=O)c2ccccc2)C[C@@](C)(C=O)[C@@H]51` (stereo partly specified), for which the result was inactive.
As for `CSc1nc(C)c(CCOC(C)=O)c(N=P(c2ccccc2)(c2ccccc2)c2ccccc2)n1`, the EC50 is greater than 200 µM and the IC50 was found to be 28.8 µM.
On the same counts, the results for `CC1(C)CC(=O)C(/C=N/c2nc(-c3cccc([N+](=O)[O-])c3)cs2)=C(O)C1` are greater than 200 µM and 8.32 µM.
On the same counts, the results for `CN(C)CCCCNc1c2c(nc3c(Cl)cccc13)CCC2` are greater than 794 µM and 16.6 µM.
On to `Oc1c(N2CCOCC2)cc(-c2cc(N3CCOCC3)c(O)c3ccccc23)c2ccccc12`, for which the EC50 is greater than 26.3 µM and the IC50 turned out to be 3.63 µM.
The like results for `Oc1[nH]c2ccccc2c1N=NC(=S)Nc1ccccc1Cl` were, in that order, greater than 200 µM and 1.51 µM.
The like results for `COC(=O)c1ccc(OCc2nc3ccccc3[nH]2)cc1` were, in that order, greater than 200 µM and 75.9 µM.
The like results for `CC(C)C1CSC2N1C(=O)C2(OCc1ccccc1)C1CC1` (stereo unspecified) were, in that order, greater than 200 µM and 81.3 µM.
As for `Cc1ccccc1C(=O)N1CCN(C(=O)c2ccccc2C)CC1`, the EC50 was greater than 145 µM and the IC50 is greater than 145 µM.
Regarding `O=C(NC(=O)c1cc(-c2ccccc2)n[nH]1)c1ccccc1`, the EC50 was greater than 200 µM and the IC50 came to 123 µM.
On the same counts, the results for `Cn1cc(S(=O)(=O)NC(=O)Nc2ccc(Cl)cc2)c2ccccc21` are greater than 200 µM and 27.5 µM.
For `CC(C(N)=O)N(C)C(=O)c1cnc2ccccc2c1` (stereo unspecified), the result was inactive.
On to `O=[As](O)(O)c1ccc(N=Nc2ccc(O)cc2)cc1`, for which the EC50 is greater than 200 µM and the IC50 is 138 µM.
On the same counts, the results for `O=c1c(Cc2ccccc2)c(O)cc2n1CCC2` are greater than 148 µM and greater than 148 µM.
`OCCOCCO[P+]1(OCCOCCO)n2c3ccc2C(c2ccccc2)=C2C=CC(=N2)C(c2ccccc2)=c2ccc(n21)=C(c1ccccc1)C1=NC(=C3c2ccccc2)C=C1`: the EC50 was greater than 100 µM and the IC50 is 0.0794 µM.
The like results for `Cc1ccc(-n2cc(/C(N)=N/O)c3ccccc3c2=O)cc1` were, in that order, greater than 89.1 µM and greater than 89.1 µM.
On the same counts, the results for `O=C(N/N=C/c1cccc([N+](=O)[O-])c1)C(=O)N/N=C/c1cccc([N+](=O)[O-])c1` are greater than 100 µM and greater than 100 µM.
The like results for `CC1=NC(=Cc2cc(Br)cc(Br)c2)C(=O)N1n1c(-c2ccccc2)nc2ccccc2c1=O` were, in that order, greater than 200 µM and 87.1 µM.
For the compound `Cc1nc(Nc2nnc(-c3cc([N+](=O)[O-])cc([N+](=O)[O-])c3C)o2)sc1C(=O)CC(=O)Cc1nc2ccc(Cl)cc2[nH]c1=O`, the EC50 was greater than 57.5 µM and the IC50 is greater than 57.5 µM.
As to `Nc1ncn2c(n1)nc1ccccc12`, the EC50 is greater than 200 µM and the IC50 was greater than 200 µM.
Regarding `O=C(c1ccccc1)C(c1ccccc1)C1(O)C(=O)Nc2c(Cl)ccc(Cl)c21` (stereo unspecified), the EC50 was greater than 17.4 µM and the IC50 was greater than 17.4 µM.
In the case of `O=C(O)CC1C(=O)OC2C3COC(=O)c4cc(O)c(O)c(O)c4-c4c(cc(O)c(O)c4O)C(=O)OC2C(OC(=O)c2cc(O)c(O)c4c2C1C(O)C(=O)O4)C(OC(=O)c1cc(O)c(O)c(O)c1)O3` (stereo unspecified), the EC50 is 3.31 µM and the IC50 came out at 18.6 µM.
The like results for `Clc1ccc(C=Nc2ccc(SSc3ccc(N=Cc4ccc(Cl)cc4)cc3)cc2)cc1` were, in that order, greater than 200 µM and 22.4 µM.
On to `NCCC1C2CC3CC(C2)CC1C3` (stereo unspecified), for which the result was inactive.
In the case of `CC1=C(C#N)C2(C(=O)N(C)c3ccccc32)C(C#N)=C(C)N1c1ccccc1`, the EC50 was greater than 14.1 µM and the IC50 was greater than 14.1 µM.
For `OC[C@H]1S[C@H](c2ccccc2)C[C@H]1O`, the EC50 was greater than 200 µM and the IC50 was greater than 200 µM.
For `OC1OCC(COc2cc(Cl)c(Cl)cc2Cl)OC1O` (stereo unspecified), the EC50 was greater than 30.2 µM and the IC50 was greater than 30.2 µM.
For `S=C(NC/C(Br)=C/Br)Nc1cccc2ccccc12`, the EC50 was greater than 200 µM and the IC50 was found to be 36.3 µM.
Turning to `CN(C)CC1CC(=O)C(CN(C)C)CC1=O` (stereo unspecified), the EC50 was greater than 832 µM and the IC50 worked out at 2.51 µM.
The like results for `N#C[C@H](C(=O)c1ccccc1F)c1nc2ccccc2[nH]1` were, in that order, 170 µM and greater than 200 µM.
On the same counts, the results for `O=S(=O)(O)c1cc(N=Nc2ccc(/C=C/c3ccc(N=Nc4cc(S(=O)(=O)O)c5cccnc5c4O)cc3S(=O)(=O)O)c(S(=O)(=O)O)c2)ccc1/C=C/c1ccc(N=Nc2cc(S(=O)(=O)O)c3cccnc3c2O)cc1S(=O)(=O)O` are 0.832 µM and 1.95 µM.
With `CCOC(=O)C(c1ccccc1)c1cccc(C(C(=O)OCC)c2ccccc2)n1` (stereo unspecified), the EC50 is greater than 17.8 µM and the IC50 is greater than 17.8 µM.
With `CC1(C)O[C@H]2[C@H](O)C[C@](O)(CO)C[C@H]2O1`, the result was inactive.
Consider `Cc1ccc(Nc2nc(C)c(C(=O)CC(=O)C(=O)Nc3c(C)cccc3C(C)(C)C)s2)cc1`, for which the EC50 was greater than 200 µM and the IC50 was greater than 200 µM.
With `CCCCNC(=S)Nc1nc(C(=O)NNC(=O)c2ccccc2)cs1`, the EC50 was greater than 200 µM and the IC50 is 11.2 µM.
On the same counts, the results for `c1cc(C[S+]2CCCC2)ccc1C[S+]1CCCC1` are greater than 100 µM and greater than 100 µM.
Turning to `CCOC(=O)C(Oc1ccc(OC)c2c1C(=O)CCC2)c1ccccc1` (stereo unspecified), the outcome was inactive.
Same read-out and setting: for `CC1=CC(C(=O)O)P(C)(=O)C1` (stereo unspecified) the value was “inactive”.
`OCCC[N+]12CCCN1CCC2`: the EC50 was greater than 200 µM and the IC50 was greater than 200 µM.
As to `Clc1ccc(C2SCc3nc4ccccc4n32)cc1Cl` (stereo unspecified), the outcome was inactive.
On to `c1csc(-c2ccc(-c3ccc(-c4ccc(-c5cccs5)s4)s3)s2)c1`, for which the EC50 is greater than 200 µM and the IC50 is greater than 200 µM.
With `O=C(c1ccccc1)N1OC2C=CC1CC2` (stereo unspecified), the EC50 is greater than 1150 µM and the IC50 was greater than 1150 µM.
Regarding `O=c1oc2ccccc2c(O)c1C(c1ccco1)c1c(O)c2ccccc2oc1=O`, the EC50 was greater than 200 µM and the IC50 turned out to be 33.9 µM.
As for `CCN(CC)CCN1C(=O)c2cccc3cccc(c23)C1=O`, the EC50 is greater than 200 µM and the IC50 is 9.77 µM.
Consider `Cc1cc(Cl)ccc1NC(=O)C(=O)Cc1nc2ccccc2o1`, for which the EC50 was greater than 11.5 µM and the IC50 is greater than 11.5 µM.
For the compound `CC(C)S(=O)(=O)ON1C(=O)c2ccc(N(C)C)cc2C1=O`, the EC50 was greater than 83.2 µM and the IC50 is greater than 83.2 µM.
As for `COc1cc2c(c(OC)c1OC)-c1ccc(SC)c(=O)cc1[C@@H](NC(=O)C(F)(F)F)CC2`, the EC50 is greater than 75.9 µM and the IC50 was 0.0245 µM.
